One test relates to Aeromonas hydrophila. In words: Minimum inhibitory concentration, liquid growth inhibition assay. Type of test: cell-based. The conditions noted are these: gram-negative, lowest concentration giving 100% decrease in optical density, peptide in PBS pH 7.4. An excerpt: (§1) The mature peptides of LcHamp1 (HAMP1: […]), LcHamp2-1/4 (HAMP2-1/4: […]), LcHamp2-2 (HAMP2-2: […]), LcHamp2-3 (HAMP2-3: GSPARCRFCCR CCPGMRGCGICCRF), and LcHamp2-5 (HAMP2-5: […]) were synthesized, oxidized, and purified by GL Biochem (Shanghai) Ltd. (Shanghai, China). Purity of the synthesized peptides was >/95%. The synthetic peptides were reconstituted in phosphate buffered saline (PBS; pH 7.4). We tested the antimicrobial activity of synthesized peptides against the five gram-negative bacteria A. hydrophila, E. coli, V. alginolyticus, V. harvryi, and V. parahemolyticus, and three gram-positive bacteria B. subtilis, B. amyloliquefaciens, and S. aureus using liquid growth inhibition assays. The minimum inhibitory concentration was considered the lowest concentration that induced a 100% decrease in the optical density of the bacterial suspension.

Test [1] concerns Bacillus amyloliquefaciens. The test is described as above. Type of test: cell-based. The conditions noted are these: gram-positive, lowest concentration giving 100% decrease in optical density, peptide in PBS pH 7.4.
From the text: as §1

The next test concerns Bacillus subtilis. The test is described as above. As to conditions: gram-positive, lowest concentration giving 100% decrease in optical density, peptide in PBS pH 7.4. The format is cell-based.
From the text: as §1

The next test has as its system Escherichia coli. The description is as above. The format is cell-based. The conditions noted are these: gram-negative, lowest concentration giving 100% decrease in optical density, peptide in PBS pH 7.4.
From the text: as §1

The subject of the next test is Staphylococcus aureus. The test is described as above. Type of test: cell-based. The conditions noted are these: gram-positive, lowest concentration giving 100% decrease in optical density, peptide in PBS pH 7.4.
From the text: as §1

Another test concerns Vibrio alginolyticus. The description is as above. The format is cell-based. The conditions noted are these: gram-negative, lowest concentration giving 100% decrease in optical density, peptide in PBS pH 7.4.
From the text: as §1

The test system of the next test is Vibrio harveyi. Described as above. The format is cell-based. The conditions noted are these: gram-negative, lowest concentration giving 100% decrease in optical density, peptide in PBS pH 7.4.
From the text: as §1

The next test has as its system Vibrio parahaemloyticus. Described as above. As to conditions: gram-negative, lowest concentration giving 100% decrease in optical density, peptide in PBS pH 7.4. The format is cell-based.
From the text: as §1

The test system of test [2] is Singapore grouper iridovirus (SGIV). The test can be described thus: Antiviral activity in SGIV-infected grouper spleen cells. The format is cell-based. As to conditions: grouper spleen cells pretreated 1 h with 50 µg/mL peptide, SGIV at MOI 2; cytopathic effect, ORF072 and ORF086 expression (real-time PCR), viral titer TCID50; three independent experiments. As for the experimental part: The antiviral activity of synthetic L. crocea hepcidins was tested in grouper spleen cells, in which a viral infection model has already been established. Grouper spleen cells were seeded onto 6-well plates (Thermo Fisher Scientific, USA) for 18 h. The grouper spleen cells were pretreated for 1 h with each synthetic Hamp peptide at a final concentration of 50 µg/mL or with PBS (as a control). After pretreatment, the cells were infected with SGIV at a multiplicity of infection of 2. At 24 h post infection, cytopathic effects in the grouper spleen cells were observed microscopically (Leica Microsystems, Germany). The expression levels of two genes encoding SGIV envelope proteins (ORF072 and ORF086) were measured with real-time PCR. E. coioides β-actin (Ecβ-actin) was amplified as an internal control. The expression level of ORF072 or ORF086 was normalized to Ecβ-actin using the 2^–ΔΔCT method. Moreover, supernatants and infected cell lysates were collected to determine the viral titer 50% tissue culture infectious dose[50]. All data were obtained from three independent experiments with each performed in triplicate.
Background: Damage to the host cells serves as the signal in cytopathic effect assays.

The subject of test [3] is five gram-negative bacteria and three gram-positive bacteria. In words: Minimum inhibitory concentration across all tested bacteria. Type of test: cell-based. The conditions noted are these: all eight tested bacteria (five gram-negative, three gram-positive); liquid growth inhibition; no antibacterial activity at highest concentration given as >.
From the text: as §1

Test [4] relates to macrophages from L. crocea head kidney. In words: Intracellular iron in macrophages. The format is cell-based, Larimichthys crocea. As to conditions: 100 ng/mL peptide, 2 h, ICP-MS, versus PBS control, P < 0.05, three independent experiments. As for the experimental part: Six groups of macrophages (1 × 10^6 cells per well) were seeded onto 6-well plates for 18 h. To each of five of the groups, we added one synthetic hepcidin peptide from L. crocea, with a final concentration of 100 ng/mL. The sixth group (control) was treated with PBS. After 2 h incubation, we measured the intracellular iron concentration of macrophages with Inductively Coupled Plasma Mass Spectrometry. The fold change was expressed as the intracellular iron concentration in macrophages treated with synthetic hepcidin peptides versus the intracellular iron concentration in the control macrophages.

Five sequences from article PMC6240063, “An improved genome assembly for Larimichthys crocea reveals hepcidin gene expansion with diversified regulation and function” (Communications Biology, 2018) can be followed below.

The MIC is the lowest concentration that inhibits growth of the organism.

Ends that are not written are not given here.

Regarding “GSPARCRFCCR CCPGMRGCGICCRF (disulfide) (disulfide (positions not given here)) [HAMP2-3, synthetic, oxidized mature peptide of Larimichthys crocea hepcidin LcHamp2-3]”, the minimal inhibitory concentration (MIC) in the test with Aeromonas hydrophila came out at 16 µM; in [1], 8 µM; against Bacillus subtilis it was 4 µM; in the test with Escherichia coli, 16 µM; with Staphylococcus aureus it was 4 µM; against Vibrio alginolyticus it was 16 µM. For the same sequence, the minimum inhibitory concentration (MIC) in the test with Vibrio harveyi and against Vibrio parahaemloyticus was 16 µM each time. Besides, the “antiviral activity against SGIV infection” value (shortened to “antiviral activity”) in test [2] was “exhibited antiviral activity”.
With “GSPARCRFCCRCCPRMRGCGICCRF (disulfide) (disulfide (positions not given here)) [HAMP2-5, synthetic, oxidized mature peptide of Larimichthys crocea hepcidin LcHamp2-5]”, the minimum inhibitory concentration (MIC) is listed as 1 µM with Aeromonas hydrophila; 1 µM in test [1]; 0.25 µM with Bacillus subtilis; 0.5 µM against Escherichia coli; 0.5 µM in the test with Staphylococcus aureus; 0.25 µM against Vibrio alginolyticus. The minimal inhibitory concentration (MIC) in the test on Vibrio harveyi and against Vibrio parahaemloyticus was 0.5 µM throughout. Besides, the “antiviral activity” value in test [2] was “no identifiable antiviral activity”.
With “QSHISLCRYCCNCCKNKGCGYCCRF (disulfide (positions not given here)) [HAMP1, synthetic, oxidized mature peptide of Larimichthys crocea hepcidin LcHamp1]”, the “minimum inhibitory concentrations for the bacterial species tested” value in [3] was above 300 µM. The “antiviral activity” value in test [2] is given as “no identifiable antiviral activity”. Further, the “intracellular iron content of macrophages (regulatory effect on iron metabolism)” value in [4] is reported as “increases in iron content”.
On the same counts, the results for “SSAAKCQFCCRCCPDMIGCGICCRF (disulfide (positions not given here)) [HAMP2-1/4]” are above 300 µM, “exhibited antiviral activity” and “increases in iron content”.
In the case of “SSAAKCQFCCRCCPRMSGCGVCCRF (disulfide (positions not given here)) [HAMP2-2, synthetic, oxidized mature peptide of Larimichthys crocea hepcidin LcHamp2-2]”, the “minimum inhibitory concentrations for the bacterial species tested” value in test [3] is above 300 µM. In addition, the “antiviral activity” value in test [2] is listed as “no identifiable antiviral activity”. Moreover, the “intracellular iron content of macrophages (regulatory effect on iron metabolism)” value in test [4] is given as “no antibacterial activity, antiviral activity or regulatory effect on iron metabolism”.
